Measured values reported in PubChem BioAssay AID1591 (Sanford-Burnham Center for Chemical Genomics, 2009).

Test system: human plasma stability, LC/MS/MS, 180 min
Test: human plasma degradation, percent remaining – biochemical, LC/MS/MS, 180 min, dry powder, ADME assay, late-stage follow-up (AID 1591)
Conditions: at 1 µM; hits give low values

percent remaining: 82.6%
Structure (SMILES): C=CCn1c(SCC(=O)c2ccc(O)c(O)c2)nnc1-c1ccccc1OC
